Data: ChEMBL document CHEMBL1130894, “Discovery of a novel benzyloxyisoquinoline derivative with potent anti-Helicobacter pylori activity” (1998)
≈ marks a conversion by molar mass, not a printed value.

How the values were obtained:
Type in all cases: functional
Helicobacter pylori [1] = experiment: Antibacterial activity was evaluated against Helicobacter pylori (9005).
Helicobacter pylori [2] = experiment: Antibacterial activity was evaluated against Helicobacter pylori (FP1757).
Helicobacter pylori [3] = experiment: Antibacterial activity was evaluated against Helicobacter pylori (13001).
Helicobacter pylori [4] = experiment: Antibacterial activity was evaluated against Helicobacter pylori (8007).
Staphylococcus aureus = experiment: Antibacterial activity was evaluated against Staphylococcus aureus (209P JC-1)
Serratia marcescens = experiment: Antibacterial activity was evaluated against Serratia marcescens (3013)
Enterococcus faecalis = experiment: Antibacterial activity was evaluated against Enterococcus faecalis (0115)
Moraxella catarrhalis = experiment: Antibacterial activity was evaluated against M.(B).catarrhalis (6014)
Escherichia coli = experiment: Antibacterial activity was evaluated against Escherichia coli (NIHJ JC-2)

SMILES: Nc1ccc(Cl)c(COc2cccc3cnccc23)c1Cl
- MIC (Helicobacter pylori [1]): 0.78 µg/mL (≈ 2.44 µM)
- MIC (Helicobacter pylori [2]): 0.78 µg/mL (≈ 2.44 µM)
- MIC (Helicobacter pylori [3]): 0.78 µg/mL (≈ 2.44 µM)
- MIC (Helicobacter pylori [4]): 0.78 µg/mL (≈ 2.44 µM)

SMILES: CC(=O)Nc1ccc(Cl)c(COc2cccc3cnccc23)c1Cl
- MIC (Helicobacter pylori [1]): 0.05 µg/mL (≈ 0.138 µM)
- MIC (Staphylococcus aureus): > 100 µg/mL
- MIC (Serratia marcescens): > 100 µg/mL
- MIC (Enterococcus faecalis): > 100 µg/mL
- MIC (Helicobacter pylori [2]): 0.0125 µg/mL (≈ 0.0346 µM)
- MIC (Helicobacter pylori [3]): 0.025 µg/mL (≈ 0.0692 µM)
- MIC (Helicobacter pylori [4]): 0.025 µg/mL (≈ 0.0692 µM)
- MIC (Moraxella catarrhalis): > 100 µg/mL
- MIC (Escherichia coli): > 100 µg/mL

SMILES: CC(=O)Nc1cc(Cl)cc(COc2cccc3cnccc23)c1Cl
- MIC (Helicobacter pylori [1]): 0.39 µg/mL (≈ 1.08 µM)
- MIC (Helicobacter pylori [2]): 0.39 µg/mL (≈ 1.08 µM)
- MIC (Helicobacter pylori [3]): 0.2 µg/mL (≈ 0.554 µM)
- MIC (Helicobacter pylori [4]): 0.39 µg/mL (≈ 1.08 µM)

SMILES: CC(=O)Nc1c(Cl)ccc(Cl)c1COc1cccc2cnccc12
- MIC (Helicobacter pylori [1]): ≥ 12.5 µg/mL
- MIC (Helicobacter pylori [2]): ≥ 12.5 µg/mL
- MIC (Helicobacter pylori [3]): ≥ 12.5 µg/mL
- MIC (Helicobacter pylori [4]): ≥ 12.5 µg/mL

SMILES: c1cc(OCc2cccc3nonc23)c2ccncc2c1
- MIC (Helicobacter pylori [1]): 0.78 µg/mL (≈ 2.81 µM)
- MIC (Helicobacter pylori [2]): 0.78 µg/mL (≈ 2.81 µM)
- MIC (Helicobacter pylori [3]): 0.2 µg/mL (≈ 0.721 µM)
- MIC (Helicobacter pylori [4]): 0.39 µg/mL (≈ 1.41 µM)

SMILES: Clc1cccc(Cl)c1COc1cccc2cnccc12
- MIC (Helicobacter pylori [1]): 1.56 µg/mL (≈ 5.13 µM)
- MIC (Helicobacter pylori [2]): 0.78 µg/mL (≈ 2.56 µM)
- MIC (Helicobacter pylori [3]): 0.78 µg/mL (≈ 2.56 µM)
- MIC (Helicobacter pylori [4]): 0.78 µg/mL (≈ 2.56 µM)

SMILES: Nc1ccc(Cl)c(COc2cccc3cnccc23)c1
- MIC (Helicobacter pylori [1]): 0.39 µg/mL (≈ 1.37 µM)
- MIC (Helicobacter pylori [2]): 0.39 µg/mL (≈ 1.37 µM)
- MIC (Helicobacter pylori [3]): 0.39 µg/mL (≈ 1.37 µM)
- MIC (Helicobacter pylori [4]): 0.39 µg/mL (≈ 1.37 µM)

SMILES: CC(=O)Nc1ccc(Cl)c(COc2cccc3cnccc23)c1
- MIC (Helicobacter pylori [1]): 0.78 µg/mL (≈ 2.39 µM)
- MIC (Helicobacter pylori [2]): 1.56 µg/mL (≈ 4.77 µM)
- MIC (Helicobacter pylori [3]): 0.78 µg/mL (≈ 2.39 µM)
- MIC (Helicobacter pylori [4]): 0.78 µg/mL (≈ 2.39 µM)

SMILES: c1ccc(COc2cccc3cnccc23)cc1
- MIC (Helicobacter pylori [1]): 1.56 µg/mL (≈ 6.63 µM)
- MIC (Helicobacter pylori [2]): 1.56 µg/mL (≈ 6.63 µM)
- MIC (Helicobacter pylori [3]): 0.78 µg/mL (≈ 3.32 µM)
- MIC (Helicobacter pylori [4]): 1.56 µg/mL (≈ 6.63 µM)

SMILES: O=[N+]([O-])c1ccc(Cl)c(COc2cccc3cnccc23)c1Cl
- MIC (Helicobacter pylori [1]): 1.56 µg/mL (≈ 4.47 µM)
- MIC (Helicobacter pylori [2]): 1.56 µg/mL (≈ 4.47 µM)
- MIC (Helicobacter pylori [3]): 1.56 µg/mL (≈ 4.47 µM)
- MIC (Helicobacter pylori [4]): 1.56 µg/mL (≈ 4.47 µM)

SMILES: Nc1cccc(COc2cccc3cnccc23)c1
- MIC (Helicobacter pylori [1]): 1.56 µg/mL (≈ 6.23 µM)
- MIC (Helicobacter pylori [2]): 1.56 µg/mL (≈ 6.23 µM)
- MIC (Helicobacter pylori [3]): 0.78 µg/mL (≈ 3.12 µM)
- MIC (Helicobacter pylori [4]): 1.56 µg/mL (≈ 6.23 µM)

SMILES: Oc1cccc2cnccc12
- MIC (Helicobacter pylori [1]): 50 µg/mL (≈ 344 µM)
- MIC (Helicobacter pylori [2]): 50 µg/mL (≈ 344 µM)
- MIC (Helicobacter pylori [3]): 25 µg/mL (≈ 172 µM)
- MIC (Helicobacter pylori [4]): 25 µg/mL (≈ 172 µM)

SMILES: Nc1cccc(COc2cccc3cnccc23)c1Cl
- MIC (Helicobacter pylori [1]): 0.39 µg/mL (≈ 1.37 µM)
- MIC (Helicobacter pylori [2]): 0.78 µg/mL (≈ 2.74 µM)
- MIC (Helicobacter pylori [3]): 0.2 µg/mL (≈ 0.702 µM)
- MIC (Helicobacter pylori [4]): 0.39 µg/mL (≈ 1.37 µM)

SMILES: CC(=O)Nc1cccc(COc2cccc3cnccc23)c1Cl
- MIC (Helicobacter pylori [1]): 0.39 µg/mL (≈ 1.19 µM)
- MIC (Helicobacter pylori [2]): 0.39 µg/mL (≈ 1.19 µM)
- MIC (Helicobacter pylori [3]): 0.39 µg/mL (≈ 1.19 µM)
- MIC (Helicobacter pylori [4]): 0.39 µg/mL (≈ 1.19 µM)

SMILES: CC(=O)Nc1cccc(COc2cccc3cnccc23)c1
- MIC (Helicobacter pylori [1]): 0.78 µg/mL (≈ 2.67 µM)
- MIC (Helicobacter pylori [2]): 1.56 µg/mL (≈ 5.34 µM)
- MIC (Helicobacter pylori [3]): 0.78 µg/mL (≈ 2.67 µM)
- MIC (Helicobacter pylori [4]): 0.78 µg/mL (≈ 2.67 µM)

SMILES: CC1(C)S[C@@H]2[C@H](NC(=O)[C@H](N)c3ccc(O)cc3)C(=O)N2[C@H]1C(=O)O [AMOXICILLIN]
- MIC (Helicobacter pylori [1]): 0.1 µg/mL (≈ 0.274 µM)
- MIC (Staphylococcus aureus): 0.05 µg/mL (≈ 0.137 µM)
- MIC (Serratia marcescens): > 100 µg/mL
- MIC (Enterococcus faecalis): 0.39 µg/mL (≈ 1.07 µM)
- MIC (Helicobacter pylori [2]): 0.025 µg/mL (≈ 0.0684 µM)
- MIC (Helicobacter pylori [3]): 0.025 µg/mL (≈ 0.0684 µM)
- MIC (Helicobacter pylori [4]): 0.1 µg/mL (≈ 0.274 µM)
- MIC (Moraxella catarrhalis): 0.39 µg/mL (≈ 1.07 µM)
- MIC (Escherichia coli): 3.13 µg/mL (≈ 8.57 µM)

SMILES: CC[C@H]1OC(=O)[C@H](C)[C@@H](O[C@H]2C[C@@](C)(OC)[C@@H](O)[C@H](C)O2)[C@H](C)[C@@H](O[C@@H]2O[C@H](C)C[C@H](N(C)C)[C@H]2O)[C@](C)(OC)C[C@@H](C)C(=O)[C@H](C)[C@@H](O)[C@]1(C)O [CLARITHROMYCIN]
- MIC (Helicobacter pylori [1]): 0.1 µg/mL (≈ 0.134 µM)
- MIC (Staphylococcus aureus): 0.1 µg/mL (≈ 0.134 µM)
- MIC (Serratia marcescens): 100 µg/mL (≈ 134 µM)
- MIC (Enterococcus faecalis): 0.2 µg/mL (≈ 0.267 µM)
- MIC (Helicobacter pylori [2]): 0.05 µg/mL (≈ 0.0668 µM)
- MIC (Helicobacter pylori [3]): 0.05 µg/mL (≈ 0.0668 µM)
- MIC (Helicobacter pylori [4]): 0.05 µg/mL (≈ 0.0668 µM)
- MIC (Moraxella catarrhalis): < 0.025 µg/mL
- MIC (Escherichia coli): 100 µg/mL (≈ 134 µM)
